How the values were obtained:
[1] = biological target: T1, human caspase 6 lacking the pro-domain (Homo sapiens, UniProt P55212); test: Lamin A cleavage in HEK 293 cells overexpressing caspase-6 (Mesoscale ELISA); assay type: cell-based; parameters: The transfected DNA encodes amino acids 24-293 of the human caspase 6 enzyme with a C-terminal DDK tag; DDK-tag (C); expressed in transfected cells; host or cells: HEK 293; conditions: 24 hr incubation; cleaved lamin A quantified; read-out: HEK intracellular IC50
T1 sequence (P55212 with tags, fused parts or gaps): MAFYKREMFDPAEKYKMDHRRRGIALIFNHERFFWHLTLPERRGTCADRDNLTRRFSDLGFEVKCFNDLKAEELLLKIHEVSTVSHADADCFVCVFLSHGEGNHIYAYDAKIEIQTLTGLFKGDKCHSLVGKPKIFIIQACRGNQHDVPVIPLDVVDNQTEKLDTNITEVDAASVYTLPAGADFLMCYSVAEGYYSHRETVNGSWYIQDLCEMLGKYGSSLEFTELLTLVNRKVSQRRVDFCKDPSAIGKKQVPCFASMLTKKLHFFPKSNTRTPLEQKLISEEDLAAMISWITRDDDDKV
Method: HEK 293 cells were grown in DMEM supplemented with 10% fetal bovine serum, 1%/penicillin/streptomycin and 0.5% glutamine. Transfections were performed using the Fugene reagent (Roche) according to manufacturer's instructions. The transfected DNA encodes amino acids 24-293 of the human caspase 6 enzyme with a C-terminal DDK tag under the control of a CMV promoter (vector pCMVSport6) (SEQ ID NO: 2). The transfected HEK 293 were used to measure the intracellular activity of caspase-6 as evidenced by cleavage of the lamin substrate (described below).
The quantitative assessment of intracellular lamin cleavage in caspase-6 transfected HEK 293 cells was done as described previously (Ehrnhoefer et al. PLoS One, 2011. 6(11):e27680) Briefly, HEK 293 cell lysates were adjusted to 1 μg protein/μl in lysis buffer, diluted to 0.2 μg/μl in PBS and 5 μl were added to a Multi-Array high-bind 96 well plate (Mesoscale discovery). After incubation at room temperature for 1 h, the wells were blocked by adding 150 μl 5% BSA in PBS, followed by further incubation at room temperature for 1 h. Wells were then washed 3× with 150 μl PBS+0.05% Tween, and 25 μl antibody mix was added (Cell signaling #2036 at 1:100 dilution, Mesoscale discovery goat-anti-rabbit sulfo-tag at 1:500 dilution in PBS with 1% BSA). After lh incubation at room temperature, the wells were washed 3× with 150 μl PBS+0.05% Tween, and 150 μl/well 2× reading reagent (Mesoscale discovery) was added. The plate was read on a Sector imager 6000 (Mesoscale discovery).
The PG3 analog compounds were also tested for their ability to inhibit caspase-6 within cultured cells. HEK 293 cells were transfected with human caspase 6 lacking the pro-domain and were incubated with increasing concentrations of the PG3 analogs. After a 24 hr incubation, the excess compound was washed away, the cells were lysed and the amount of cleaved lamin A protein was quantified by the Mesoscale ELISA method.

recombinant caspase-6 = biological target: T2, recombinant caspase-6 (Homo sapiens, UniProt P55212); test: Simultaneous caspase-6 cleavage and 586 fragment detection by FRET; assay type: biochemical; conditions: cell-free; Htt substrate from COS-7 cell lysates
T2 construct: purchased BioMol
T2 sequence (P55212 24-293): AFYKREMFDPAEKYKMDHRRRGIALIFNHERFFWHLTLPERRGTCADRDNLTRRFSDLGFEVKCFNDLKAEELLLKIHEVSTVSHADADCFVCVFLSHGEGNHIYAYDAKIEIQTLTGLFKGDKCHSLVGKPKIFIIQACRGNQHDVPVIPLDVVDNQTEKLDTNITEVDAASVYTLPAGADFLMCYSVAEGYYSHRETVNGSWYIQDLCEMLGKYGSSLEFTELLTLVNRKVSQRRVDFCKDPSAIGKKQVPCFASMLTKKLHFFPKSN
Method: Different concentrations of the PG3 compounds were incubated with the Htt protein and the caspase-6 enzyme. The Htt substrate from COS-7 cell lysates is cleaved by caspase 6 and fragments are detected by FRET between the N-terminal BKP1 antibody and the neo-epitope antibody against amino acid 586.
COS-7 cells were grown in DMEM supplemented with 10% fetal bovine serum, 1%/penicillin/streptomycin and 0.5% glutamine. Transfections were performed using the Fugene reagent (Roche) according to manufacturer's instructions. The transfected DNA encodes amino acids 1-1212 of the human Htt protein with 15 glutamines and a C-terminal HA-tag, under control of a CMV promoter (Warby, 2008, supra; Wellington et al., 2000. J Biol Chem 275:19831-19838). The construct that was transfected is 4c Htt, which contains D→A mutations at amino acids 513, 530, 552 and […] (SEQ ID NO: 1). 24 h after transfection, cells were harvested by trypsinization, pellets washed in PBS and lysed by suspension in lysis buffer (50 mM Tris pH 8, 150 mM NaCl, 1% Igepal, supplemented with 1× complete protease inhibitor (Roche) and 4 mM Pefabloc). Lysates were incubated on ice for 10 min, vortexed and sonicated for 4 sec before centrifugation at 21,000×g for 10 min at 4° C. Supernatants were saved, protein concentration determined with the Biorad DC assay and stored at −80° C. until use.
Dilution series of cell lysates and caspase-6 (2.2× final concentration) were prepared in FRET cleavage buffer (10 mM HEPES pH 7.4, 100 mM NaCl, 0.05% gelatin, 0.1% CHAPS, 2 mM DTT) since this buffer was previously found to best stabilize caspase-6 in dilute form at room temperature. For negative controls, 22 μM zVAD-fmk was added to the caspase-6 dilutions.
Tb-labelled BKP1 antibody and D2-labelled 586 antibody (Cisbio) were diluted to 1 ng/μl (Tb) and 10 ng/μl (D2) in FRET cleavage buffer and pre-mixed at a 1:1 ratio.
In each well of a white 384 well plate (Nunc), 10 μl cell lysate were mixed with 10 μl caspase and 2 μl antibody mix, the plate was centrifuged briefly and incubated in the Victor 3 multilabel plate reader (Perkin Elmer) at 37° C. FRET was measured every 30 min for up to 2 h with the following settings: Excitation: 340 nm, Emission 1: 615 nm, Emission 2: 665 nm, 50 μs delay, 200 μs window time, 2000 μs cycle time. To obtain the final FRET signal, the ratio between Emission 2/Emission 1 (D2/Tb signal) was calculated. After 2 h at 37° C., the assay plate was sealed and after further incubation at 4° C. for 20 h, the FRET signal was read again.

[2] = biological target: T3, interaction between 1212AA Htt and caspase-6 (Homo sapiens, UniProt P55212); test: Co-immunoprecipitation of Htt with caspase-6 antibody from COS-7 lysates; assay type: cell-based; conditions: 3 uM inhibitor, vs DMSO
T3 construct: DDK-tag (C); expressed in transfected cells; host or cells: COS-7
T3 sequence (P55212 with tags, fused parts or gaps): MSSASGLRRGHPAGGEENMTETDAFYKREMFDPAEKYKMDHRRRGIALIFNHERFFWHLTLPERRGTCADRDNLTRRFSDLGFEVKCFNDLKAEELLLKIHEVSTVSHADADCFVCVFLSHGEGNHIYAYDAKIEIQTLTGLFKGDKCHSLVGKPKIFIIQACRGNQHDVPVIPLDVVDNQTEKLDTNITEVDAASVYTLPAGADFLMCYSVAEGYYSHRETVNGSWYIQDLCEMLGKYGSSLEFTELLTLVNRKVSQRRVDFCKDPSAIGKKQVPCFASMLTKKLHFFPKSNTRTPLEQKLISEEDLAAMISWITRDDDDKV
Method: (§1) COS-7 cells were co-transfected with the 1212 amino acid HTT fragment (SEQ ID NO: 3) and the full length human caspase-6 enzyme (SEQ ID NO:4). The co-transfected cells were exposed to either 10 uM of the PG3d compound, 3 uM of the Q-VD-Oph pan-caspase inhibitor or were treated with DMSO as a control. An aliquot of the cell lysates were subjected to Western blotting to detect HTT fragments with the Htt antibody 2166 (Millipore) and the presence of caspase-6 was detected using the HD91 antibody (Ehrnhoefer et al, HMG, 2014. 23(3):717-29). The remaining cell lysates (500 ug protein) were immunoprecipitated with 5 ug of Caspase-6 antibody for 16 hrs at 4 C. The immunoprecipitated proteins were then applied to acrylamide gels and immunoblotted to detect either the HTT fragments or the presence of the active caspase 6 enzyme using the antibodies described above.
As expected, the DMSO control lysates reveal a variety of Htt fragments within the immunocomplexes, including 513AA fragment generated by caspase-3 cleavage, the full-length 1212AA Htt and the 586AA fragment generated by caspase-6 cleavage. When the cells are treated with the pan-caspase inhibitor Q-VD-OPh, the amount of Htt cleavage fragments interacting with caspase-6 is reduced and it is evident that caspase-6 is primarily interacting with the 1212 AA Htt.

[3] = biological target: T4, full-length human caspase-6 (Homo sapiens, UniProt P55212); test: Western blot of Htt fragments in COS-7 cells co-transfected with Htt 1-1212AA and full-length caspase-6; assay type: cell-based; conditions: 3 uM inhibitor, 24 hr, vs DMSO
T4 construct: DDK-tag (C); expressed in transfected cells; host or cells: COS-7
T4 sequence (P55212 with tags, fused parts or gaps): T3 sequence (P55212 with tags, fused parts or gaps)
Method: as §1
Cos-7 cells were co-transfected with Htt 1-1212AA (SEQ ID NO:3) and full-length human caspase-6 (SEQ ID NO:6), and exposed to either the pan-caspase inhibitor Q-VD-OPh, the PG3d compound or DMSO as a negative control. As shown in the upper panel of FIG. 9A, control cells that received DMSO alone (lanes labelled n.t.) show the presence of the Htt 1212AA protein and the Htt proteolytic cleavage fragments including the 586, 552 and 513 amino acid fragments. […]

[4] = biological target: T1, human caspase 6 lacking the pro-domain; test: Intracellular Htt cleavage by Western blot in co-transfected COS-7 cells; assay type: cell-based; parameters: DDK-tag (C); expressed in transfected cells; host or cells: COS-7; conditions: 3 uM inhibitor
Method: COS-7 cells were co-transfected with the 4c htt fragment and the human caspase-6 lacking the pro-domain which leads to fast autoactivation of the caspase-6 enzyme and the generation of the 586 aa Htt cleavage fragment. The co-transfected cells were exposed to either 10 uM of the PG3d compound, 3 uM of the Q-VD-Oph pan-caspase inhibitor or were left untreated. Non-transfected cells were included as a negative control and the purified 586 aa Htt fragment was included as a positive control. Cell lysates were subjected to Western blotting and the 586AA fragment generated intracellularly was detected with Htt antibody 2166 (Millipore). Caspase-6 expression and activation was assessed by Western blotting using antibody HD91 (Ehrnhoefer et al, HMG, 2014. 23(3):717-29).
COS-7 cells were co-transfected with the 4c htt fragment and the human caspase-6 lacking the pro-domain which leads to fast autoactivation of the caspase-6 enzyme and the generation of the 586 aa Htt cleavage fragment. […] Non-transfected cells were included as a negative control and the purified 586 aa Htt fragment was included as a positive control. […] The cell lysates were also assayed for the levels of active caspase 6 enzyme as shown in the lower panel of FIG. 5B.

SMILES	IC50 [1]	melting point	IC50 (recombinant caspase-6)	amount of Htt cleavage fragments interacting with caspase-6 [2]	amount of Htt cleavage fragments [3]	cleavage of the Htt protein to the 586 amino acid fragment [4]	level of active caspase-6 enzyme [4]
CC(C)c1c(O)nc(C#Cc2ccccc2)oc1=O [PG-3c, 4-Hydroxy-5-isopropyl-2-(phenylethynyl)-6H-1,3-oxazin-6-one]	> 15 µM	202 to 203 °C	12.2 µM				
O=C(C#Cc1ccccc1)NC(=O)Cc1ccccc1 [PG-3h, 3-Phenyl-N-(phenylacetyl)prop-2-ynamide]	4.8 µM		8.1 µM				
CC(C)[C@H](NC(=O)c1ccc2ccccc2n1)C(=O)N[C@@H](CC(=O)O)C(=O)COc1c(F)cccc1F [Q-VD-Oph, reference compound]				reduced	reduction	reduced cleavage	reduced level of active caspase-6 enzyme
O=c1oc(C#Cc2ccccc2)nc(O)c1-c1ccccc1 [PG-3e, 4-Hydroxy-5-phenyl-2-(phenylethynyl)-6H-1,3-oxazin-6-one]	2.5 µM	187 to 189 °C	3.9 µM				
Cc1c(O)nc(C#Cc2ccccc2)oc1=O [PG-3a, 4-Hydroxy-5-methyl-2-(phenylethynyl)-6H-1,3-oxazin-6-one]	> 15 µM	184 to 186 °C	8.2 µM				
CCc1c(O)nc(C#Cc2ccccc2)oc1=O [PG-3b, 5-Ethyl-4-hydroxy-2-(phenylethynyl)-6H-1,3-oxazin-6-one]	12.1 µM	177 to 178 °C	8 µM				
CCCCc1c(O)nc(C#Cc2ccccc2)oc1=O [PG-3, 5-Butyl-4-hydroxy-2-(phenylethynyl)-6H-1,3-oxazin-6-one]		157 to 159 °C	13.8 µM				
Cc1c(O)nc(C#Cc2ccccc2Cl)oc1=O [PG-3f, 2-[(2-Chlorophenyl)ethynyl]-4-hydroxy-5-methyl-6H-1,3-oxazin-6-one]		175 to 178 °C	57.3 µM				
O=c1oc(C#Cc2ccc(Cl)cc2)nc(O)c1-c1ccccc1 [PG-3g, 2-[(4-Chlorophenyl)ethynyl]-4-hydroxy-5-phenyl-6H-1,3-oxazin-6-one]	3.9 µM	185 to 187 °C (dec.)	7.5 µM				

From US20190192524A1, “Modulators of Caspase-6” (The University of British Columbia, priority 2014, published 2019)
